Test results published in patent US7728012B2, “Carboxamide compounds and their use as calpain inhibitors” (Abbott GmbH & Co. KG, priority 2006, dated 2010).

Assays:
Assay type in all cases: biochemical
[1] = target: T1, cathepsin B isolated from human liver (Homo sapiens, UniProt P07858); test: Cathepsin B kinetic fluorescence enzyme inhibition assay; settings: selectivity ratio versus calpain I
T1 construct: cathepsin B—isolated from human liver; purchased Calbiochem 219362; host or cells: human liver (tissue isolate)
Procedure: (§1) The following solutions and buffers were employed: • HBS (for 40 ml): 800 μl M HEPES; 2.16 ml 100 mM KCl; 4.8 ml 1M NaCl; 3.59 ml 5% glucose; 60 μl μM MgSO4; 400 μl 100 mM Na pyruvate, 28.19 ml water; pH 7.2-7.5. • lysis buffer (for 20 ml): 400 μl M Tris pH 8.2; 2.74 ml 1M NaCl; 520 μl 0.5M EDTA; 2 ml 10% triton X-100; 0.8 ml (=1:25) CompletePlus (1 tablet/2 ml H2O); 200 μl 100 mM Pefabloc; 13.34 ml water, pH 8.2. • TBST (10×) (for 1 l): 100 mM Tris (12.1 g); 1.5M NaCl (87 g); 1% Tween 20 (10 g), adjusted to pH 8. I Enzyme Inhibition In Vitro: • Testing for blockade of the corresponding enzymic activities was carried out by means of kinetic fluorescence assays (excitation 390 nm, emission 460 nm). • Apparent Ki values were calculated from the experimentally determined IC50 values by the Cheng-Prussoff relation assuming a reversible competitive enzyme inhibition. The Km values of the substrates used under the assay conditions indicated above were: 90 μM (Z-Phe-Arg-AMC, cathepsin B), 10 μM (Z-Gly-Pro-Arg-AMC, cathepsin K), 2 μM (Z-Phe-Arg-AMC, cathepsin L), and 30 μM (Z-Val-Val-Arg-AMC, cathepsin S). • The indicated Ki values are averages of the inhibition constants calculated on the basis of 2 to 4 independent dose-effect plots.
(§2) The following assays were used: • 1. Calpain I: • 20 nM calpain-I—isolated from human erythrocytes (Calbiochem #208713), 100 μM Suc-Leu-Tyr-AMC (Bachem #1-1355) as substrate in buffer with 62 mM imidazole, 0.3 mM CaCl2, 0.10% CHAPS, 0.05% BSA, 1 mM DTT at pH 7.3 and room temperature. • 2. Cathepsin B: • 0.25 nM cathepsin B—isolated from human liver (Calbiochem #219362), 100 μM Z-Phe-Arg-AMC (Bachem #I-1160) as substrate 50 mM MES, 2 mM EDTA, 0.05% Brij 35, 2.5 mM L-cysteine, pH 6.0, room temperature. • 3. Cathepsin K: • 3 nM cathepsin K—activated from recombinant human procathepsin K from E. coli (Calbiochem #342001), 10 μM Z-Gly-Pro-Arg-AMC (Biomol #P-142) as substrate in 50 mM MES, 2 mM EDTA, 0.05% Brij 35, 2.5 mM L-cysteine, pH 6.0, room temperature. • 4. Cathepsin L: • 1 nM cathepsin L—isolated from human liver (Calbiochem #219402), 2 μM Z-Phe-Arg-AMC (Bachem #1-1160) as substrate in 50 mM MES, 2 mM EDTA, 0.05% Brij 35, 2.5 mM L-cysteine, pH 6.0, room temperature. • 5. Cathepsin S: • 0.5 nM recombinant human cathepsin S from E. coli (Calbiochem #219343), 20 μM Z-Val-Val-Arg-AMC (Bachem #1-1540) as substrate in 50 mM MES, 2 mM EDTA, 0.05% Brij 35, 2.5 mM L-cysteine, pH 6.0, room temperature. • The results of the in vitro determination are indicated in Table 1. The following abbreviations are used in Table 1: • The “Calpain activity” column, ++ stands for a calpain Ki (Ki(calpain)) of ≦40 nM and + means: 40 nM<Ki(Calpain)≦100 nM. • The “Sel. cat. B” column indicates the Ki(cathepsin B)/Ki(calpain) ratio. In this connection, ++ means a Ki(cathepsin B)/Ki(calpain) ratio of ≧30 and + means 10≦Ki(cathepsin B)/Ki(calpain)<30. • The “Sel. cat. K” column indicates the Ki(cathepsin K)/Ki(calpain) ratio. In this connection, ++ means a Ki(cathepsin K)/Ki(calpain) ratio of ≧30 and + means 10≦Ki(cathepsin K)/Ki(calpain)<30. • The “Sel. cat. L” column indicates the Ki(cathepsin L)/Ki(calpain) ratio. In this connection, ++ means a Ki(cathepsin L)/Ki(calpain) ratio of ≧50 and + means 30≦Ki(cathepsin L)/Ki(calpain)<50. • The “Sel. cat. S” column indicates the Ki(cathepsin S)/Ki(calpain) ratio. In this connection, ++ means a Ki(cathepsin S)/Ki(calpain) ratio of ≧100 and + means 50≦Ki(cathepsin S)/Ki(calpain)<100.

[2] = target: T2, calpain-I isolated from human erythrocytes (Homo sapiens, UniProt P07384); test: Calpain I kinetic fluorescence enzyme inhibition assay; settings: apparent Ki from IC50 by Cheng-Prussoff; average of 2 to 4 dose-effect plots
T2 construct: calpain-I—isolated from human erythrocytes; purchased Calbiochem 208713; host or cells: human erythrocytes (tissue isolate)
T2 sequence (P07384 1-714): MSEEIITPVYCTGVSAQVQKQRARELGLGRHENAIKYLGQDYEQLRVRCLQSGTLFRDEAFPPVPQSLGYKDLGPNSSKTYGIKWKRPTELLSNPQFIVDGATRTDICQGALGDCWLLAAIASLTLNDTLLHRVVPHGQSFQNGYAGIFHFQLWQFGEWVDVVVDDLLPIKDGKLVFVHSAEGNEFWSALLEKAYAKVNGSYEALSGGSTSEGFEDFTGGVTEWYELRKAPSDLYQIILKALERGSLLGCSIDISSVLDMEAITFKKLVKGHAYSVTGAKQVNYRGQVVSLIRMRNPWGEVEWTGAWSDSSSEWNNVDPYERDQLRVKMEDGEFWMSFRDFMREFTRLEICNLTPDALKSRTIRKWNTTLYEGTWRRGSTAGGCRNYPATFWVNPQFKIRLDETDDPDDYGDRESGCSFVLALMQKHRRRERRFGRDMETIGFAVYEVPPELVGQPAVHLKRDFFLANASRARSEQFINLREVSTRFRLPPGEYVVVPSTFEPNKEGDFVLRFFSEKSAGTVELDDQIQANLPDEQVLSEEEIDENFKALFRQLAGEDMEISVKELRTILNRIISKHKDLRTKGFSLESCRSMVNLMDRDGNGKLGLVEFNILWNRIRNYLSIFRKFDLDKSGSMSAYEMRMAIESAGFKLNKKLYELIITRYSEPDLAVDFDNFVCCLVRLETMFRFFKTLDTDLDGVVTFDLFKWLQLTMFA
T2 sequence (P04632 1-268 partner): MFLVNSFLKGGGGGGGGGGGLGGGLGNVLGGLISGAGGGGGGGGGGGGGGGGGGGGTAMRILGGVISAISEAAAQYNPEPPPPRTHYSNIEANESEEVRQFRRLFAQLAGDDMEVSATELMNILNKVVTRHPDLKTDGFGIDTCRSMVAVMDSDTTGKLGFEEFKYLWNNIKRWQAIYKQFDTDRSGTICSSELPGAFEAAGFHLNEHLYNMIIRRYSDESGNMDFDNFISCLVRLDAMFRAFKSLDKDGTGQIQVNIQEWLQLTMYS

[3] = target: T3, cathepsin L isolated from human liver (Homo sapiens, UniProt P07711); test: Cathepsin L kinetic fluorescence enzyme inhibition assay; settings: selectivity ratio versus calpain I
T3 construct: cathepsin L—isolated from human liver; purchased Calbiochem 219402; host or cells: human liver (tissue isolate)
Procedure: as §1, §2

[4] = target: T4, recombinant human cathepsin S (Homo sapiens, UniProt P25774); test: Cathepsin S kinetic fluorescence enzyme inhibition assay; settings: selectivity ratio versus calpain I
T4 construct: purchased Calbiochem 219343; host or cells: E. coli
Procedure, shortened: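 Kinetic fluorescence (ex 390/em 460 nm) at room temperature in 50 mM MES, 2 mM EDTA, 0.05% Brij 35, 2.5 mM L-cysteine, pH 6.0. Cathepsin B (liver, 0.25 nM) with 100 μM Z-Phe-Arg-AMC; cathepsin L (liver, 1 nM) with 2 μM Z-Phe-Arg-AMC; recombinant E. coli cathepsin S (0.5 nM) with 20 μM Z-Val-Val-Arg-AMC. Ki via Cheng-Prusoff.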

T3 sequence (P07711 114-333): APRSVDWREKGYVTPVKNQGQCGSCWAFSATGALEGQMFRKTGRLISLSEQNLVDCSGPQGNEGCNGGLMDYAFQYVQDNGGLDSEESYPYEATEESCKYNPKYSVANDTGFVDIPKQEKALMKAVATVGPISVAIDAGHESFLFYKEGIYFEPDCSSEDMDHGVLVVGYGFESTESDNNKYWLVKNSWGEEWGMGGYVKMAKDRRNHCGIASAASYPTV
T4 sequence (P25774 115-331): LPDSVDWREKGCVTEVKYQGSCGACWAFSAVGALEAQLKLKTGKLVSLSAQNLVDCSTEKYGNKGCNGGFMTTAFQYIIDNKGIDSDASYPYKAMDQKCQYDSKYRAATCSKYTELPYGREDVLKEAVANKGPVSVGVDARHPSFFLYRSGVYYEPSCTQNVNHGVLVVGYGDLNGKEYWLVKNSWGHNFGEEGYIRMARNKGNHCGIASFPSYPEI

Row | Sel cat. B (Ki(cathepsin B)/Ki(calpain) ratio) [1] | Ki [2] | Compound | Sel cat. L (Ki(cathepsin L)/Ki(calpain) ratio) [3] | Sel cat. S (Ki(cathepsin S)/Ki(calpain) ratio) [4]
1 | + (10≦Ki(cathepsin B)/Ki(calpain)<30) | ≤ 40 nM | CCCCC(NC(=O)c1cc(Cl)cnc1-n1ccc(-c2ccccc2)n1)C(=O)C(N)=O (stereo not drawn) [Example 28, N-{1-[Amino(oxo)acetyl]pentyl}-5-chloro-2-(3-phenyl-1H-pyrazol-1-yl)nicotinamide] |  | 
2 | + (10≦Ki(cathepsin B)/Ki(calpain)<30) | ≤ 40 nM | CC(C)CC(NC(=O)c1cc(Cl)cnc1-n1ccc(-c2ccccc2)n1)C(=O)C(N)=O (stereo not drawn) [Example 32, N-{1-[Amino(oxo)acetyl]-3-methylbutyl}-5-chloro-2-(3-phenyl-1H-pyrazol-1-yl)nicotinamide] |  | 
3 |  | 40 to 100 nM | NC(=O)C(=O)C(Cc1ccccc1)NC(=O)c1cccnc1-n1ccc(-c2ccc(Cl)cc2)n1 (stereo not drawn) [Example 39, N-(3-Amino-1-benzyl-2,3-dioxopropyl)-2-[3-(4-chlorophenyl)-1H-pyrazol-1-yl]nicotinamide] | ++ (Ki(cathepsin L)/Ki(calpain) ratio of ≧50) | ++ (Ki(cathepsin S)/Ki(calpain) ratio of ≧100)
4 |  | 40 to 100 nM | CCCCC(NC(=O)c1cccnc1-n1ccc(-c2ccc(OC)cc2)n1)C(=O)C(N)=O (stereo not drawn) [Example 49, N-{1-[Amino(oxo)acetyl]pentyl}-2-[3-(4-methoxyphenyl)-1H-pyrazol-1-yl]nicotinamide] | + (30≦Ki(cathepsin L)/Ki(calpain)<50) | ++ (Ki(cathepsin S)/Ki(calpain) ratio of ≧100)
5 |  | ≤ 40 nM | CCCCC(NC(=O)c1cccnc1-n1ccc(-c2cccc(N3CCOCC3)c2)n1)C(=O)C(N)=O (stereo not drawn) [Example 59, N-{1-[Amino(oxo)acetyl]pentyl}-2-[3-(3-morpholin-4-ylphenyl)-1H-pyrazol-1-yl]nicotinamide] | ++ (Ki(cathepsin L)/Ki(calpain) ratio of ≧50) | + (50≦Ki(cathepsin S)/Ki(calpain)<100)
6 | + (10≦Ki(cathepsin B)/Ki(calpain)<30) |  | Cc1cc(-c2ccccc2)nn1-c1ncccc1C(=O)NC(Cc1ccccc1)C(=O)C(N)=O (stereo not drawn) [Example 61, N-(3-Amino-1-benzyl-2,3-dioxopropyl)-2-(5-methyl-3-phenyl-1H-pyrazol-1-yl)nicotinamide] |  | ++ (Ki(cathepsin S)/Ki(calpain) ratio of ≧100)
7 |  | 40 to 100 nM | N#Cc1ccc(-c2ccn(-c3ncccc3C(=O)NC(Cc3ccccc3)C(=O)C(N)=O)n2)cc1 (stereo not drawn) [Example 62, N-(3-Amino-1-benzyl-2,3-dioxopropyl)-2-[3-(4-cyanophenyl)-1H-pyrazol-1-yl]nicotinamide] | ++ (Ki(cathepsin L)/Ki(calpain) ratio of ≧50) | ++ (Ki(cathepsin S)/Ki(calpain) ratio of ≧100)
8 |  | 40 to 100 nM | NC(=O)C(=O)C(Cc1ccccc1)NC(=O)c1cccnc1-n1cc2ccccc2n1 (stereo not drawn) [Example 78, N-(3-Amino-1-benzyl-2,3-dioxopropyl)-2-(2H-indazol-2-yl)nicotinamide] | ++ (Ki(cathepsin L)/Ki(calpain) ratio of ≧50) | + (50≦Ki(cathepsin S)/Ki(calpain)<100)
9 |  | ≤ 40 nM | NC(=O)C(=O)C(Cc1ccccc1)NC(=O)c1ccccc1-n1ccc(-c2ccccc2)n1 (stereo not drawn) [Example 106, N-[3-Amino-2,3-dioxo-1-(phenylmethyl)propyl]-2-(3-phenyl-1H-pyrazol-1-yl)benzamide] | + (30≦Ki(cathepsin L)/Ki(calpain)<50) | ++ (Ki(cathepsin S)/Ki(calpain) ratio of ≧100)
10 |  | 40 to 100 nM | NC(=O)C(=O)C(Cc1ccccc1)NC(=O)c1cccnc1-n1cc2c(n1)-c1ccccc1OCC2 (stereo not drawn) [Example 141, N-[3-Amino-2,3-dioxo-1-(phenylmethyl)propyl]-2-(4,5-dihydro-2H-[1]benzoxepino[5,4-c]pyrazol-2-yl)pyridine-3-carboxamide] | ++ (Ki(cathepsin L)/Ki(calpain) ratio of ≧50) | ++ (Ki(cathepsin S)/Ki(calpain) ratio of ≧100)
11 |  | 40 to 100 nM | CS(=O)(=O)NCc1cn(-c2ncccc2C(=O)NC(Cc2ccccc2)C(=O)C(N)=O)nc1-c1ccc(F)cc1 (stereo not drawn) [Example 187, N-[3-Amino-2,3-dioxo-1-(phenylmethyl)propyl]-2-[3-(4-fluorophenyl)-4-{[(methylsulfonyl)amino]methyl}-1H-pyrazol-1-yl]pyridine-3-carboxamide] | + (30≦Ki(cathepsin L)/Ki(calpain)<50) | ++ (Ki(cathepsin S)/Ki(calpain) ratio of ≧100)
